The target in one assay is T1, A1 receptor (Rattus norvegicus, UniProt P25099).
T1 construct: cerebral cortex of male Wistar rats (Charles River Japan, Inc) was extirpated; from tissue; host or cells: cerebral cortex of male Wistar rats, cell membrane preparation
T1 sequence (P25099 1-326): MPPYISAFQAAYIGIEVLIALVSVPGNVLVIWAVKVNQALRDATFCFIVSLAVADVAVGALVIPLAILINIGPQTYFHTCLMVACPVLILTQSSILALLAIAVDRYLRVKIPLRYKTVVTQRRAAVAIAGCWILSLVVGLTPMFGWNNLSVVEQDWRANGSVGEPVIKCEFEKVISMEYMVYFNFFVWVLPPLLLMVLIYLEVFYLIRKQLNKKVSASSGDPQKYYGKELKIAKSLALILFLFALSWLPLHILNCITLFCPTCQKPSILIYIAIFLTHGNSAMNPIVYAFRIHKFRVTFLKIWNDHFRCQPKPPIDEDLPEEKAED
The assay is described as follows: Adenosine A1 agonistic action ([35S]GTPγS binding, rat cerebral cortex cell membrane). To be noted: percentage to 100% of CPA 1 μM. In kind it is biochemical, male Wistar rats. As for the experimental part: (2) Adenosine A1 Agonistic Action
The test was carried out as mentioned below with reference to the method disclosed in the literature (Shryock J. C. et al., Molecular Pharmacology, (1998) 53, 886-893; Ito H. et al., European Journal of Pharmacology, (1999) 365, 309-315). That is, cerebral cortex of male Wistar rats (Charles River Japan, Inc) was extirpated, thereto Tris buffer (50 mM Tris-HCl: pH 7.4) was added, it was homogenized, and then centrifuged (1000×g, 10 min). The supernatant was taken, and centrifuged (20,000×g, 20 min). After removing off the supernatant, the precipitate was suspended in Tris buffer, and recentrifuged (20,000×g, 20 min). After removing off the supernatant, the precipitate was suspended in Tris buffer including 2 units/mL ADA (adenosine deaminase) and reserved at −80° C. until used as a liquid preparation of cell membrane for the following tests.
The above liquid preparation of cell membrane in an amount corresponding to 10 μg of cell membrane was added to Tris-buffer comprising 5 mM of MgCl2, 1 mM of EDTA, 1 mM of dithiothreitol, 100 mM of NaCl, 0.01 mM of GDP (guanosine diphosphate), 5 mg/mL of BSA and 2 units/mL of ADA and the mixture was incubated at 25° C. for 30 minutes. Additionally, [^35S]GTPγS (Guanosine 5′-[γ-thio]triphosphate) (the final concentration: 0.4 nM) and the test compound of the given concentration (which was calculated based on the final concentration of the test compound) were added to the mixture and the resulting mixture was incubated at 25° C. for 45 minutes. The reaction mixture was filtrated through a glass fiber filter (unifilter-96 GF/B, Perkin Elmer Life Sciences) to quench reaction. The filter was washed 5 times with ice-cooled Tris-buffer including 5 mM MgCl2. The radioactivity of the filter was measured with Top count NXT(Perkin Elmer Life Sciences). The nonspecific binding was shown as the binding activity of [^35S]GTPγS in the presence of 0.01 mM GTPγS.
The activity (%, A1 agonistic action) of each test compound was calculated on the basis of the test result ([^35S]GTPγS binding activity) derived with 1 μM of CPA (N^6-Cyclopentyladenosine, Sigma, code C-8031) in control which was counted as 100%.

Assay [1] concerns the target T2, adenosine A2a receptor (Human) (Homo sapiens, UniProt P29274).
T2 construct: host or cells: HEK293
Nature of the assay: c-AMP generating action in cell expressing adenosine A2a receptor. Type of assay: cell-based. The settings on record: HEK293 cell expressing human A2a; 100% = c-AMP caused by 1 μM CGS-21680; read-out: A2a Agonistic Action (EC50). The method in brief: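 HEK293 cells with human A2a receptor were preincubated 30 min at 37 °C with 0.1 mM IBMX and 2 U/mL adenosine deaminase. Compound was then added for 30 min and cAMP read by EIA. EC50 = concentration giving 50% of the cAMP produced by 1 μM CGS-21680.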

Assay [2] concerns Intraocular Pressure in Rabbit. The assay is described as follows: Measuring test for intraocular pressure in rabbit. In kind it is in vivo, Female New Zealand white rabbits. The settings on record: rabbit, instillation, difference from pre-instillation, mean±standard error. The method in brief: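 Female New Zealand white rabbits received 50 μL eye drops of compound in 10 mM phosphate buffer pH 7.5 (suspension if insoluble) in one eye, vehicle as control. IOP measured by pneumatonometer under topical oxybuprocaine before and 0.5–6 h after dosing; reported as ΔIOP from pre-instillation, mmHg, mean±SE.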

T2 sequence (P29274 whole entry): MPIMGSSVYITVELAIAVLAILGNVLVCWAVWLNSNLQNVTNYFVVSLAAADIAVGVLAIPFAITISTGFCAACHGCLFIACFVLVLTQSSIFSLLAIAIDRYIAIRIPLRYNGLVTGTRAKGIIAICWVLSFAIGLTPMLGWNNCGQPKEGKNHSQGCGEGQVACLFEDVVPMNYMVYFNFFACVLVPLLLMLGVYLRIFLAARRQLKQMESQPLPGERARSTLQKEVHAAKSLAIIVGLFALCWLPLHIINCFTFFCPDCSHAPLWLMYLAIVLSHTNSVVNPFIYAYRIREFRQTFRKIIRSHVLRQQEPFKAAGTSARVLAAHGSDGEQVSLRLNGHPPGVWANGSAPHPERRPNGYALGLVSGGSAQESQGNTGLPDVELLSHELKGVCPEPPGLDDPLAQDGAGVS

Consider `CC(=O)Nc1ccc(-c2nc(SCc3cccc(CCC(=O)N(C)CCN(C)C)n3)nc(N)c2C#N)cc1.Cl` [Example 62, 3-{6-[4-(4-acetylaminophenyl)-6-amino-5-cyanopyrimidin-2-ylsulfanylmethyl]pyridin-2-yl}-N-(2-dimethylaminoethyl)-N-methylpropionamide hydrochloride], for which the “A1 Agonistic Action (%)” value is 8% at A1 receptor (test compound 10 nM), 30% at A1 receptor (test compound 100 nM) and 39% at A1 receptor (test compound 1 μM). Moreover, the EC50 in assay [1] is 5.1 nM. Further, the “ΔIOP (mmHg)” value in assay [2] (0.03% ophthalmic solution, 0.5 hr after instillation) is recorded as −1.2 ± 0.7 mmHg; in assay [2] (0.03% ophthalmic solution, 1 hr after instillation), −4.7 ± 0.5 mmHg; in assay [2] (0.03% ophthalmic solution, 2 hr after instillation), −5.1 ± 0.3 mmHg; in assay [2] (0.03% ophthalmic solution, 3 hr after instillation), −4.9 ± 0.3 mmHg; in assay [2] (0.03% ophthalmic solution, 4 hr after instillation) it was −3.6 ± 0.3 mmHg; in assay [2] (0.03% ophthalmic solution, 6 hr after instillation) it was −1.0 ± 0.6 mmHg.

As for `CC(=O)Nc1ccc(-c2nc(SCc3cccc(CCC(=O)N4CCN(CCN(C(C)C)C(C)C)CC4)n3)nc(N)c2C#N)cc1.Cl` [Example 76, N-{4-[6-amino-5-cyano-2-(6-{3-[4-(2-diisopropylaminoethyl)piperazin-1-yl]-3-oxopropyl}pyridin-2-ylmethylsulfanyl)pyrimidin-4-yl]phenyl}acetamide hydrochloride], the “A1 Agonistic Action (%)” value at A1 receptor (test compound 10 nM) turned out to be 0%; at A1 receptor (test compound 100 nM), 14%; at A1 receptor (test compound 1 μM), 46%. The EC50 in assay [1] is 7.6 nM. Further, the “ΔIOP (mmHg)” value in assay [2] (0.01% ophthalmic solution, 0.5 hr after instillation) is reported as −3.7 ± 0.5 mmHg; in assay [2] (0.01% ophthalmic solution, 1 hr after instillation) it was −6.0 ± 0.8 mmHg; in assay [2] (0.01% ophthalmic solution, 2 hr after instillation) it was −5.7 ± 0.1 mmHg; in assay [2] (0.01% ophthalmic solution, 3 hr after instillation), −6.1 ± 0.3 mmHg; in assay [2] (0.01% ophthalmic solution, 4 hr after instillation), −5.2 ± 0.4 mmHg; in assay [2] (0.01% ophthalmic solution, 6 hr after instillation) it was −3.6 ± 0.7 mmHg.

These data come from US7989446B2, “4-amino 5-cyanopyrimidine derivatives” (Otsuka Pharmaceutical Co., Ltd., priority 2004, dated 2011).
